Results: the NIST ThermoML archive (doi:10.1016/j.jct.2011.01.006)
“And” between values parts separate entries of the source, which are not always exact repeats. Identical values can stand only once. ± gives the expanded uncertainty stated by the source.

How the values were obtained:
[1] = Crystal, Calculated from knudsen effusion weight loss
[2] = molar enthalpy of vaporization or sublimation; conditions: 298.15 K; Crystal; Ebulliometric method (Recirculating still)

CC(=O)c1ccc([N+](=O)[O-])cc1 [1-(4-nitrophenyl)ethanone]
vapor or sublimation pressure ([1]; 302.19 K): 9.1e-05 ± 5e-06 kPa and 9e-05 ± 5e-06 kPa | vapor or sublimation pressure ([1]; 304.15 K): 0.000121 ± 6e-06 kPa and 0.000119 ± 6e-06 kPa and 0.000118 ± 6e-06 kPa | vapor or sublimation pressure ([1]; 306.07 K): 0.000149 ± 7e-06 kPa and 0.000156 ± 8e-06 kPa and 0.000151 ± 8e-06 kPa | vapor or sublimation pressure ([1]; 306.19 K): 0.000148 ± 7e-06 kPa and 0.000151 ± 8e-06 kPa and 0.000147 ± 7e-06 kPa | vapor or sublimation pressure ([1]; 308.16 K): 0.000192 ± 1e-05 kPa and 0.000193 ± 1e-05 kPa and 0.00019 ± 1e-05 kPa | vapor or sublimation pressure ([1]; 310.07 K): 0.000239 ± 1.2e-05 kPa and 0.000235 ± 1.2e-05 kPa and 0.000243 ± 1.2e-05 kPa | vapor or sublimation pressure ([1]; 312.19 K): 0.000329 ± 1.6e-05 kPa and 0.000306 ± 1.5e-05 kPa and 0.000304 ± 1.5e-05 kPa | vapor or sublimation pressure ([1]; 314.16 K): 0.000402 ± 2e-05 kPa and 0.000397 ± 2e-05 kPa and 0.000392 ± 2e-05 kPa | vapor or sublimation pressure ([1]; 316.07 K): 0.000494 ± 2.5e-05 kPa and 0.000502 ± 2.5e-05 kPa and 0.000503 ± 2.5e-05 kPa | vapor or sublimation pressure ([1]; 318.18 K): 0.000657 ± 3.3e-05 kPa and 0.000619 ± 3.1e-05 kPa and 0.000617 ± 3.1e-05 kPa | vapor or sublimation pressure ([1]; 320.13 K): 0.000795 ± 4e-05 kPa and 0.000792 ± 4e-05 kPa and 0.00078 ± 3.9e-05 kPa | vapor or sublimation pressure ([1]; 322.06 K): 0.00096 ± 4.8e-05 kPa and 0.000984 ± 4.9e-05 kPa and 0.000991 ± 5e-05 kPa | molar enthalpy [2]: 23.2 ± 0.263 kcal/mol

CC(=O)c1cccc([N+](=O)[O-])c1 [1-(3-nitrophenyl)ethanone]
vapor or sublimation pressure ([1]; 300.2 K): 7e-05 ± 4e-06 kPa and 6.8e-05 ± 3e-06 kPa and 6.6e-05 ± 3e-06 kPa | vapor or sublimation pressure ([1]; 302.18 K): 8.8e-05 ± 4e-06 kPa and 8.9e-05 ± 4e-06 kPa | vapor or sublimation pressure ([1]; 304.08 K): 0.000113 ± 6e-06 kPa and 0.000115 ± 6e-06 kPa | vapor or sublimation pressure ([1]; 306.2 K): 0.000149 ± 7e-06 kPa and 0.000148 ± 7e-06 kPa and 0.000152 ± 8e-06 kPa | vapor or sublimation pressure ([1]; 308.16 K): 0.000192 ± 1e-05 kPa and 0.000191 ± 1e-05 kPa and 0.000189 ± 9e-06 kPa | vapor or sublimation pressure ([1]; 310.08 K): 0.000238 ± 1.2e-05 kPa and 0.000241 ± 1.2e-05 kPa and 0.000249 ± 1.2e-05 kPa | vapor or sublimation pressure ([1]; 312.19 K): 0.000321 ± 1.6e-05 kPa and 0.000305 ± 1.5e-05 kPa and 0.000302 ± 1.5e-05 kPa | vapor or sublimation pressure ([1]; 314.15 K): 0.000404 ± 2e-05 kPa and 0.000392 ± 2e-05 kPa and 0.000387 ± 1.9e-05 kPa | vapor or sublimation pressure ([1]; 316.08 K): 0.000499 ± 2.5e-05 kPa and 0.000491 ± 2.5e-05 kPa and 0.00049 ± 2.5e-05 kPa | vapor or sublimation pressure ([1]; 318.18 K): 0.000669 ± 3.4e-05 kPa and 0.000628 ± 3.1e-05 kPa and 0.000621 ± 3.1e-05 kPa | vapor or sublimation pressure ([1]; 320.15 K): 0.000817 ± 4.1e-05 kPa and 0.000801 ± 4e-05 kPa and 0.00079 ± 4e-05 kPa | vapor or sublimation pressure ([1]; 322.08 K): 0.001007 ± 0.0001 kPa and 0.001 ± 5e-05 kPa and 0.000997 ± 5e-05 kPa | molar enthalpy [2]: 23.69 ± 0.215 kcal/mol
